Reference: ChEMBL document CHEMBL5528029, “Design, synthesis, and biological evaluation of novel discoidin domain receptor inhibitors for the treatment of lung adenocarcinoma and pulmonary fibrosis” (Eur J Med Chem, 2024)
Active and inactive are the calls of the source. The rule behind the calls is not given here.

Tests used:
[1] = system: Mus musculus; assay: Antifibrotic activity against bleomycin-induced C57BL/6 mouse model of pulmonary fibrosis assessed as reduction in collagen hyperplasia at 30 mg/kg, ip administered once daily for 21 days; format: functional, organism-based; details: time 21.0 day
[2] = system: A549; assay: Antiproliferative activity against human A549 cells transfected with DDR1 siRNA incubated for 72 hrs by MTT assay; format: functional, cell-based
[3] = system: A549; assay: Inhibition of epithelial-to-mesenchymal transition in human A549 cells assessed as downregulation of N-cadherin protein expression at 50 to 200 nM by Western blotting analysis; format: functional, cell-based; details: dose 50-200 nM
[4] = system: A549; assay: Inhibition of epithelial-to-mesenchymal transition in human A549 cells assessed as upregulation of E-cadherin protein expression at 50 to 200 nM by Western blotting analysis; format: functional, cell-based; details: dose 50-200 nM
[5] = system: Mus musculus; assay: Antifibrotic activity against bleomycin-induced C57BL/6 mouse model of pulmonary fibrosis assessed as reduction in collagen-I level in pulmonary tissue at 30 mg/kg, ip administered once daily for 21 days by immunofluorescence staining based assay; format: functional, organism-based; details: time 21.0 day
[6] = system: A549; assay: Effect on DDR1 level in human A549 cells at 50 to 200 nM by Western blotting analysis; format: functional, cell-based; details: dose 50-200 nM
[7] = system: NIH3T3; assay: Inhibition of TGF-beta1 induced mouse NIH3T3 cells activation assessed as reduction in collagen-I accumulation at 3 to 6 uM preincubated with TGF-beta1 followed by compound addition by immunofluorescence staining based assay; format: functional, cell-based; details: dose 3-6 µM
[8] = system: A549; assay: Antitumor activity against human A549 cells xenografted in SPF BALB/c nude mouse assessed as reduction in cell growth ratio at 30 mg/kg, ip administered for 14 days by TUNEL staining based immunohistochemistry analysis; format: functional, organism-based; details: time 14.0 day
[9] = system: NCI-H1975; assay: Antiproliferative activity against human NCI-H1975 cells incubated for 72 hrs by MTT assay; details: NCI-H1975, 72 h
[10] = system: A549; assay: Antitumor activity against human A549 cells xenografted in SPF BALB/c nude mouse assessed as reduction in Ki-67 expression at 30 mg/kg, ip administered for 14 days by immunohistochemistry analysis; format: functional, organism-based; details: time 14.0 day
[11] = system: A549; assay: Antiproliferative activity against human A549 cells incubated for 72 hrs by MTT assay; details: A549, 72 h
[12] = system: A549; assay: Effect on ERK1/2 level in human A549 cells at 50 to 200 nM by Western blotting analysis; format: functional, cell-based; details: dose 50-200 nM
[13] = target: Mitogen-activated protein kinase; ERK1/ERK2 (Homo sapiens) (UniProt P27361+P28482); assay: Inhibition of ERK1/2 phosphorylation in human A549 cells at 50 to 200 nM by Western blotting analysis; format: cell-based; details: dose 50-200 nM
[14] = system: Mus musculus; assay: Antifibrotic activity against bleomycin-induced C57BL/6 mouse model of pulmonary fibrosis assessed as reduction in neutrophil count in BALF at 30 mg/kg, ip administered once daily for 21 days; format: functional, organism-based; details: time 21.0 day
[15] = system: Mus musculus; assay: Antifibrotic activity against bleomycin-induced C57BL/6 mouse model of pulmonary fibrosis assessed as increase in animal survival at 15 mg/kg, ip administered once daily for 21 days; format: functional, organism-based; details: time 21.0 day
[16] = system: NIH3T3; assay: Inhibition of TGF-beta1 induced mouse NIH3T3 cells activation assessed as reduction in alpha-SMA level at 3 to 6 uM preincubated with TGF-beta1 followed by compound addition by immunofluorescence staining based assay; format: functional, cell-based; details: dose 3-6 µM
[17] = system: Mus musculus; assay: Antifibrotic activity against bleomycin-induced C57BL/6 mouse model of pulmonary fibrosis assessed as reduction in alpha-SMA level in pulmonary tissue at 30 mg/kg, ip administered once daily for 21 days by immunofluorescence staining based assay; format: functional, organism-based; details: time 21.0 day
[18] = system: A549; assay: Inhibition of epithelial-to-mesenchymal transition in human A549 cells assessed as downregulation of N-cadherin protein expression at 200 nM by laser confocal microscopy analysis; format: functional, cell-based
[19] = target: NT-3 growth factor receptor (Homo sapiens) (UniProt Q16288); assay: Inhibition of TRK-C (unknown origin) assessed as remaining activity at 1 uM using fluorescein-poly GAT as substrate in presence of ATP by TR-FRET assay relative to control
[20] = system: Mus musculus; assay: In vivo inhibition of DDR1 phosphorylation in SPF BALB/c nude mouse xenografted with human A549 cells at 30 mg/kg, ip administered for 14 days; format: functional, organism-based; details: time 14.0 day
[21] = target: T1, Discoidin domain-containing receptor 2 (Homo sapiens) (UniProt Q16832); assay: Inhibition of DDR2 (unknown origin) assessed as remaining activity at 1 uM using fluorescein-poly GAT as substrate in presence of ATP by TR-FRET assay relative to control
T1 sequence (whole entry): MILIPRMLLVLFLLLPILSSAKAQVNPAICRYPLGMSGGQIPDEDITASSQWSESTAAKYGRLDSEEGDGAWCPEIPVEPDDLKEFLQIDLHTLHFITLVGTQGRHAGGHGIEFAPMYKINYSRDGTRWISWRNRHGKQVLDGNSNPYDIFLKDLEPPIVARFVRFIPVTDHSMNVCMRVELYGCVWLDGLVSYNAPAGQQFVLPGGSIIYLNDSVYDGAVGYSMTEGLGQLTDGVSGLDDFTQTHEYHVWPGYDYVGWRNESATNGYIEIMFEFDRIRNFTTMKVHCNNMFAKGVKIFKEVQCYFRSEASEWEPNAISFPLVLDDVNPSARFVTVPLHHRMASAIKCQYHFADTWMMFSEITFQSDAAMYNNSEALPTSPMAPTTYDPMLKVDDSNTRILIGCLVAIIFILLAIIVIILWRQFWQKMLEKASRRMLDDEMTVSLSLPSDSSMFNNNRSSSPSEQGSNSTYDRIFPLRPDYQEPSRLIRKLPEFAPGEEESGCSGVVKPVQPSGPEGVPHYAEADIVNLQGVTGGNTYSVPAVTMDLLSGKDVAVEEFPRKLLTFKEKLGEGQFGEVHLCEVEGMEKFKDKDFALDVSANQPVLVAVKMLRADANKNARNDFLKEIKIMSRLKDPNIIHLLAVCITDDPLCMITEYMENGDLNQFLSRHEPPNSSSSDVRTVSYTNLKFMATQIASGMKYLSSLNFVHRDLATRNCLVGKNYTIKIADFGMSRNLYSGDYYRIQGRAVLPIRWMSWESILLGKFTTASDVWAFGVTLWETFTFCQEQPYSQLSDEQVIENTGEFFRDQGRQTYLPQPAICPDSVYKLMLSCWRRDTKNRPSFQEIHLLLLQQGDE

[22] = Toxicity in SPF BALB/c nude mouse xenografted with human A549 cells assessed as weight loss at 30 mg/kg, ip administered for 14 days; format: organism-based; details: in vivo, 336 h, time 14 day
[23] = target: RAC-alpha serine/threonine-protein kinase (Homo sapiens) (UniProt P31749); assay: Inhibition of Akt1 phosphorylation in human A549 cells at 50 to 200 nM by Western blotting analysis; format: cell-based; details: dose 50-200 nM
[24] = system: A549; assay: Inhibition of cell migration in human A549 cells at 50 to 200 nM by transwell assay; format: functional, cell-based; details: dose 50-200 nM
[25] = system: Mus musculus; assay: Antifibrotic activity against bleomycin-induced C57BL/6 mouse model of pulmonary fibrosis assessed as increase in animal survival at 30 mg/kg, ip administered once daily for 21 days; format: functional, organism-based; details: time 21.0 day
[26] = system: Mus musculus; assay: Antifibrotic activity against bleomycin-induced C57BL/6 mouse model of pulmonary fibrosis assessed as reduction in total cell count in BALF at 30 mg/kg, ip administered once daily for 21 days; format: functional, organism-based; details: time 21.0 day
[27] = target: T2, Discoidin domain-containing receptor 2 (Homo sapiens, UniProt Q16832); assay: Inhibition of DDR2 (unknown origin)
T2 sequence (Q16832 whole entry): T1 sequence (whole entry)

[28] = system: A549; assay: Antitumor activity against human A549 cells xenografted in SPF BALB/c nude mouse assessed as tumor growth inhibition at 30 mg/kg, ip administered for 14 days; format: functional, organism-based; details: time 14.0 day
[29] = Antiproliferative activity against human SPCA1 cells incubated for 72 hrs by MTT assay; details: SPCA1, 72 h
[30] = target: High affinity nerve growth factor receptor (Homo sapiens) (UniProt P04629); assay: Inhibition of TRK-A (unknown origin) assessed as remaining activity at 1 uM using fluorescein-poly GAT as substrate in presence of ATP by TR-FRET assay relative to control
[31] = system: A549; assay: Effect on AKT1 level in human A549 cells at 50 to 200 nM by Western blotting analysis; format: functional, cell-based; details: dose 50-200 nM
[32] = system: Mus musculus; assay: Antifibrotic activity against bleomycin-induced C57BL/6 mouse model of pulmonary fibrosis assessed as reduction in morphological changes at 30 mg/kg, ip administered once daily for 21 days by H and E staining based assay; format: functional, organism-based; details: time 21.0 day
[33] = system: Mus musculus; assay: Antifibrotic activity against bleomycin-induced C57BL/6 mouse model of pulmonary fibrosis assessed as reduction in inflammatory cytokines levels in BALF at 30 mg/kg, ip administered once daily for 21 days; format: functional, organism-based; details: time 21.0 day
[34] = target: BDNF/NT-3 growth factors receptor (Homo sapiens) (UniProt Q16620); assay: Inhibition of TRK-B (unknown origin) assessed as remaining activity at 1 uM using fluorescein-poly GAT as substrate in presence of ATP by TR-FRET assay relative to control
[35] = system: A549; assay: Inhibition of epithelial-to-mesenchymal transition in human A549 cells assessed as upregulation of E-cadherin protein expression at 200 nM by laser confocal microscopy analysis; format: functional, cell-based
[36] = system: NIH3T3; assay: Inhibition of TGF-beta1 induced mouse NIH3T3 cells activation assessed as reduction in alpha-SMA level at 5 uM preincubated with TGF-beta1 followed by compound addition by immunofluorescence staining based assay; format: functional, cell-based
[37] = system: NIH3T3; assay: Inhibition of TGF-beta1 induced mouse NIH3T3 cells activation assessed as reduction in collagen-I accumulation at 5 uM preincubated with TGF-beta1 followed by compound addition by immunofluorescence staining based assay; format: functional, cell-based

Chain of High affinity nerve growth factor receptor (Homo sapiens) (P04629 33-796 limits assumed): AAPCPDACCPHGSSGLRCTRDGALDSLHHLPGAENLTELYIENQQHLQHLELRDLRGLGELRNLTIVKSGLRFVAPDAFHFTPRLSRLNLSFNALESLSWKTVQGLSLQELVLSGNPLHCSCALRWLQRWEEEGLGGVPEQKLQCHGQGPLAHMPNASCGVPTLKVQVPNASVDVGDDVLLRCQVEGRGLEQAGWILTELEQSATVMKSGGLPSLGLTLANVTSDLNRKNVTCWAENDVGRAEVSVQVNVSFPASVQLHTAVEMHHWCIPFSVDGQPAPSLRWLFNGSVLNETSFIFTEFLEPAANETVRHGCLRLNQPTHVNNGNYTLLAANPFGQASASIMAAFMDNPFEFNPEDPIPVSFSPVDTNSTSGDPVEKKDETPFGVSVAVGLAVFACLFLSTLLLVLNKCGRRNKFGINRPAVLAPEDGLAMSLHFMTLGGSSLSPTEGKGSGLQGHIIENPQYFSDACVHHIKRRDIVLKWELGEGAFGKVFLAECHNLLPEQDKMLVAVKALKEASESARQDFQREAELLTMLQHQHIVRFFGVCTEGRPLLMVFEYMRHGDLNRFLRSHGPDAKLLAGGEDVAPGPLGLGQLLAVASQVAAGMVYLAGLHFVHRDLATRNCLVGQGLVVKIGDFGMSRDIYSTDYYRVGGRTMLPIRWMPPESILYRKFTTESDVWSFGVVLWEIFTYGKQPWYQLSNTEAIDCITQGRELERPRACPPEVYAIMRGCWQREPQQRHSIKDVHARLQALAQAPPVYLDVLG
Chain of RAC-alpha serine/threonine-protein kinase (Homo sapiens) (P31749 whole entry): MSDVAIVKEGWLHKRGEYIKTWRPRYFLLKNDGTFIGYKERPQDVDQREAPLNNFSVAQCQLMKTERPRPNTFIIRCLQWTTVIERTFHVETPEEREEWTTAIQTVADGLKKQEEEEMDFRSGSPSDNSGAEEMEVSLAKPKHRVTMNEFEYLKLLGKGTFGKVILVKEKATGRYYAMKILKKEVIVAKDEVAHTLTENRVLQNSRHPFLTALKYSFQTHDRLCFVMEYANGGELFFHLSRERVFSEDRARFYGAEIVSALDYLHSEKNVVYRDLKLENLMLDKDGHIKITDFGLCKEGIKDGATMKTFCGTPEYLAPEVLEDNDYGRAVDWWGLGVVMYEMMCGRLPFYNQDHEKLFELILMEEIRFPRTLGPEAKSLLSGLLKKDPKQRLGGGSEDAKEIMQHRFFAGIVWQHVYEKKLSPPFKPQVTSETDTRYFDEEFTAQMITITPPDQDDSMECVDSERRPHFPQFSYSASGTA
Chain of BDNF/NT-3 growth factors receptor (Homo sapiens) (Q16620 32-822 limits assumed): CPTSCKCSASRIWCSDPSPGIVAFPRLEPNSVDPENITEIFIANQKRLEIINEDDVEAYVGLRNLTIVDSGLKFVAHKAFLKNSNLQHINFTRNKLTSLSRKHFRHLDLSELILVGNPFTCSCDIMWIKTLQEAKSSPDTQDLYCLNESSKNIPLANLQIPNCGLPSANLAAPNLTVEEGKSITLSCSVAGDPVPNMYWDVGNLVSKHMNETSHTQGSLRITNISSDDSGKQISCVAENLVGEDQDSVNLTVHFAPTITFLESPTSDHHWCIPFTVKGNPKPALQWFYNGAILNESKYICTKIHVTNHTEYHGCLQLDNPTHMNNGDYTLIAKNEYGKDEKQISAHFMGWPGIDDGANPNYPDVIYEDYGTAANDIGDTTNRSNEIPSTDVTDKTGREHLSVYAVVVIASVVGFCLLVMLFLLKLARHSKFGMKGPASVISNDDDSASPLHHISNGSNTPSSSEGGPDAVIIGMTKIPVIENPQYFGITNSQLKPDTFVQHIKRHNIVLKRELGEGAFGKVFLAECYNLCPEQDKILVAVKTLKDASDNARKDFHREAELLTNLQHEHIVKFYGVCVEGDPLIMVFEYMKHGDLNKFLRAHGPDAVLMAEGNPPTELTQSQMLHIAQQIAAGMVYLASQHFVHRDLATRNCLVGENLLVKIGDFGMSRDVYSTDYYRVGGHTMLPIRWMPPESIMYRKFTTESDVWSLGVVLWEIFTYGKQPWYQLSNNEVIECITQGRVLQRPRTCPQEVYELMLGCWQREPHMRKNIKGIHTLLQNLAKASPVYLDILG
Chain of Mitogen-activated protein kinase; ERK1/ERK2 (Homo sapiens) (P27361 whole entry, looked up): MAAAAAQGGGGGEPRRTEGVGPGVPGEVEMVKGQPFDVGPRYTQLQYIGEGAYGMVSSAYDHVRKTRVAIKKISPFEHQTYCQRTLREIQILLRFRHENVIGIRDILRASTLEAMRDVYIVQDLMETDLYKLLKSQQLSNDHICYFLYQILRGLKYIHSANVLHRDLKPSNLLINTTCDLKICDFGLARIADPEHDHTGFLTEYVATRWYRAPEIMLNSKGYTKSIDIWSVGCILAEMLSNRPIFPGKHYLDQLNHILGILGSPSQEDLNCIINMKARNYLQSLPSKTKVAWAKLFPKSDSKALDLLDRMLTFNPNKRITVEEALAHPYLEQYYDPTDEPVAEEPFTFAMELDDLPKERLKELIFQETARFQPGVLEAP
Chain of Mitogen-activated protein kinase; ERK1/ERK2 (Homo sapiens) (P28482 whole entry, looked up): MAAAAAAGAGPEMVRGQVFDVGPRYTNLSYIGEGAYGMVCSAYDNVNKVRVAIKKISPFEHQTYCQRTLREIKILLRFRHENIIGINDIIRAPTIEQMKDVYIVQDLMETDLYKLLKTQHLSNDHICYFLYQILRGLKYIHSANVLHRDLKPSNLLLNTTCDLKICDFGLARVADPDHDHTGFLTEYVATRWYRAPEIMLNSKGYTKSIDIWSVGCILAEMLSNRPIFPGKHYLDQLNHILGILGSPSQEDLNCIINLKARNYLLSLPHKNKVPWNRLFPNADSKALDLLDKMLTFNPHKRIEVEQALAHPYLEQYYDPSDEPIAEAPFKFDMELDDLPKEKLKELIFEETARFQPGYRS
Chain of NT-3 growth factor receptor (Homo sapiens) (Q16288 32-839 limits assumed): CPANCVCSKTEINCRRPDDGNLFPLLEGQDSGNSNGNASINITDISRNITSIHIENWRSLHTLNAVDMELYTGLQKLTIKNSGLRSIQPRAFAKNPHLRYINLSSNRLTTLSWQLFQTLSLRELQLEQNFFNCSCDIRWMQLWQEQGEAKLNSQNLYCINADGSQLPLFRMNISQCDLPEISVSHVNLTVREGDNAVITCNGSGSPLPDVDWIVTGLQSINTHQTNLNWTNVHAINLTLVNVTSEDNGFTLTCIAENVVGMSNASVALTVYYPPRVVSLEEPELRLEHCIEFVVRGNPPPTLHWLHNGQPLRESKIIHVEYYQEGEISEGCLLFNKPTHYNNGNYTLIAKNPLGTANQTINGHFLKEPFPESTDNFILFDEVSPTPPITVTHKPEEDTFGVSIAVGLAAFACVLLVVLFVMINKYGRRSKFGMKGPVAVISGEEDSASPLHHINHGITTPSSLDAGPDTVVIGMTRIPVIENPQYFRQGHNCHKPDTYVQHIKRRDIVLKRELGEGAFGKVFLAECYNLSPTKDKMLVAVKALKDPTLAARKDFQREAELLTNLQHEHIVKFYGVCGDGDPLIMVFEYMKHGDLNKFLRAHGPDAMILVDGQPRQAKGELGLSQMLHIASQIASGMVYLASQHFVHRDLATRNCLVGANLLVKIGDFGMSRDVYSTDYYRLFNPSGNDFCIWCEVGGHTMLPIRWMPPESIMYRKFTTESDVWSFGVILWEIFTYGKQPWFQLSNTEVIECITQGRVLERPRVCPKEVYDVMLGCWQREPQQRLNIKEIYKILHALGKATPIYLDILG

CN1CCN(C(=O)Cn2cc(CNC(=O)Nc3ccc(F)cc3F)c3cc(F)ccc32)CC1
Activity [1]: Active | Activity [2]: inactive | inhibition [3]: Active | inhibition [4]: Active | Activity [5]: Active | Activity [6]: inactive | inhibition [7]: Active | Activity [8]: Active | IC50 [9]: 1.87 µM | Activity [10]: Active | IC50 [11]: 1.84 µM | Activity [12]: inactive | inhibition [13]: Active | Activity [14]: Active | Activity [15]: Active | inhibition [16]: Active | Activity [17]: Active | inhibition [18]: Active | Activity [19]: 78.6% | inhibition [20]: Active | Activity [21]: 13.7% | Activity [22]: Non-Toxic | inhibition [23]: Active | inhibition [24]: Active | Activity [25]: Active | Activity [26]: Active | IC50 [27]: 0.126 µM | Activity [28]: Active | IC50 [29]: 3.51 µM | Activity [30]: 84.9% | Activity [31]: inactive | Activity [32]: Active | Activity [33]: Active | Activity [34]: 106% | inhibition [35]: Active

Cc1nc(Nc2ncc(C(=O)Nc3c(C)cccc3Cl)s2)cc(N2CCN(CCO)CC2)n1 [DASATINIB ANHYDROUS]
inhibition [3]: Active | inhibition [4]: Active | inhibition [36]: Active | Activity [6]: inactive | IC50 [9]: 1.26 µM | IC50 [11]: 2.55 µM | Activity [12]: inactive | Activity [25]: Active | Activity [28]: Active | IC50 [29]: 2.46 µM | inhibition [37]: Active | Activity [31]: inactive
